Columns and labels:
Format in all cases: functional, cell-based
P388 = test: Cytotoxicity against mouse P388 cells after 48 hrs by MTT assay; conditions: P388, 48 h
A549 = test: Cytotoxicity against human A549 cells after 96 hrs by MTT assay; conditions: A549, 96 h
PANC-1 = test: Cytotoxicity against human PANC1 cells after 96 hrs by MTT assay; conditions: PANC-1, 96 h

SMILES	IC50 (P388)	IC50 (A549)	IC50 (PANC-1)
CSC1=CC(=O)C(Br)=C[C@]12CCNC1=C2c2nccc3cn(C)c(c23)C1=O [DISCORHABDIN S]	3.08 µM	> 5000 nM	2600 nM
CSC1=CC(=O)C(Br)=C[C@]12C=CNC1=C2c2nccc3cn(C)c(c23)C1=O [DISCORHABDIN T]	> 5 µM	> 5000 nM	700 nM
CSC1=CC(=O)C(Br)=C[C@]12C=CNC1=C2C2=NCCc3cn(C)c(c32)C1=O [DISCORHABDIN U]	0.17 µM	170 nM	69 nM
